# According to ChEMBL document CHEMBL4419178, “Yap1 inhibitors that target the interaction of yap1 with oct4” (2018):
# Active and inactive are the calls of the source. No cut-off for these calls is given here.
# Columns and labels:
# [1] = molecular target: Transcriptional coactivator YAP1 (Homo sapiens) (UniProt P46937); assay: Inhibition of YAP1 (unknown origin) assessed as disruption in YAP1/OCT4 interaction at 10 uM by ELISA relative to control
# [2] = molecular target: Transcriptional coactivator YAP1 (Homo sapiens) (UniProt P46937); assay: Inhibition of YAP1 (unknown origin) assessed as disruption in YAP1/OCT4 interaction at 50 uM by cell based assay
# NCI-H1650 [3] = assay: Inhibition of self-renewal capacity in stem-like side-population cells of human NCI-H1650 cells assessed as reduction in number of spheres at 5 to 50 uM incubated for 10 days by sphere formation assay; format: functional, cell-based
# NCI-H1650 [4] = assay: Cytotoxicity in human NCI-H1650 cells assessed as reduction in cell viability at 1 to 20 uM incubated for 72 hrs by MTT assay; format: functional, cell-based
# A549 = assay: Cytotoxicity in human A549 cells assessed as reduction in cell viability at 1 to 20 uM incubated for 72 hrs by MTT assay; format: functional, cell-based
# NCI-H1650 [5] = assay: Cytotoxicity in human NCI-H1650 cells assessed as reduction in cell viability at 20 to 50 uM incubated for 24 hrs followed by medium replacement with RPMI medium with 10% FCS for 48 hrs by MTT assay; format: functional, cell-based
# NCI-H1650 [6] = assay: Cytotoxicity in human NCI-H1650 cells assessed as reduction in cell viability at 20 to 50 uM incubated for 72 hrs by MTT assay; format: functional, cell-based
# NCI-H2286 = assay: Cytotoxicity in human NCI-H2286 cells assessed as reduction in cell viability at 5 to 50 uM incubated for 96 hrs by MTT assay; format: functional, cell-based
# NCI-H2170 = assay: Cytotoxicity in human NCI-H2170 cells assessed as reduction in cell viability at 5 to 50 uM incubated for 96 hrs by MTT assay; format: functional, cell-based
# NCI-H1650 [7] = assay: Cytotoxicity in human NCI-H1650 cells assessed as induction of cell killing in presence of cancer associated fibroblasts at 20 to 50 uM incubated for 24 to 48 hrs by cytotracker-red/green dye staining based immunofluorescence microscopy; format: functional
# [8] = Cytotoxicity in human cancer associated fibroblasts at 20 to 50 uM incubated for 24 to 48 hrs by cytotracker-red/green dye staining based immunofluorescence microscopy
# [9] = Lipophilicity, logP of the compound; format: physicochemical; conditions: octanol/water
# [10] = molecular target: Transcriptional coactivator YAP1 (Homo sapiens) (UniProt P46937); assay: Inhibition of YAP1 in human NCI-H1650 cells assessed as disruption in YAP1/OCT4 interaction at 20 to 50 uM incubated for 48 hrs by proximity ligation assay; format: cell-based
# NCI-H1650 [11] = assay: Inhibition of YAP1 in human NCI-H1650 cells assessed as disruption in YAP1/TEAD2 interaction at 20 to 50 uM incubated for 48 hrs by proximity ligation assay; format: cell-based
# [12] = molecular target: Transcriptional coactivator YAP1 (Homo sapiens) (UniProt P46937); assay: Inhibition of YAP1 in human NCI-H1650 cells assessed as reduction in Sox2 protein expression at 10 uM incubated for 72 hrs by Western blot analysis; format: cell-based
# [13] = molecular target: Transcriptional coactivator YAP1 (Homo sapiens) (UniProt P46937); assay: Inhibition of YAP1 in human NCI-H1650 cells assessed as reduction in c-Myc protein expression at 10 uM incubated for 72 hrs by Western blot analysis; format: cell-based
# [14] = molecular target: Transcriptional coactivator YAP1 (Homo sapiens) (UniProt P46937); assay: Inhibition of YAP1 in human NCI-H1650 cells assessed as reduction in PDK2 protein expression at 10 uM incubated for 72 hrs by Western blot analysis; format: cell-based
# [15] = molecular target: Transcriptional coactivator YAP1 (Homo sapiens) (UniProt P46937); assay: Inhibition of YAP1 in human A549 cells assessed as reduction in Sox2 protein expression at 10 uM incubated for 72 hrs by Western blot analysis; format: cell-based
# [16] = molecular target: Transcriptional coactivator YAP1 (Homo sapiens) (UniProt P46937); assay: Inhibition of YAP1 in human A549 cells assessed as reduction in c-Myc protein expression at 10 uM incubated for 72 hrs by Western blot analysis; format: cell-based
# [17] = molecular target: Transcriptional coactivator YAP1 (Homo sapiens) (UniProt P46937); assay: Inhibition of YAP1 in human A549 cells assessed as reduction in PDK2 protein expression at 10 uM incubated for 72 hrs by Western blot analysis; format: cell-based
# Chain of Transcriptional coactivator YAP1 (Homo sapiens) (P46937 whole entry): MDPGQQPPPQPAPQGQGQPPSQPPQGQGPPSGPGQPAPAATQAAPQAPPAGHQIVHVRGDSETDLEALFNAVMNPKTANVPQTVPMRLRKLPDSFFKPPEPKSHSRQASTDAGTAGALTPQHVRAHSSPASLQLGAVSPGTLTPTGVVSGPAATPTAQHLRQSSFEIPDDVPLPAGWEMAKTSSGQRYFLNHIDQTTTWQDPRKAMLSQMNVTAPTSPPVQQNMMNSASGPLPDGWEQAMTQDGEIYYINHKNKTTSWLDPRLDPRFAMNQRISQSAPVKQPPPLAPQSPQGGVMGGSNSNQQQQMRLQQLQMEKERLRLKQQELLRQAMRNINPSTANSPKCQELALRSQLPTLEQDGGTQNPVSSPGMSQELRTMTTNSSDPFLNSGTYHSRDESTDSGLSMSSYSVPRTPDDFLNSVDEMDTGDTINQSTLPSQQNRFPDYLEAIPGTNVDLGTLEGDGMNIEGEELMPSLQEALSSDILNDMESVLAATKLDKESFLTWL
inhibition [1],inhibition [2],logP [9],inhibition [10],inhibition [12],inhibition [13],inhibition [14],inhibition [15],inhibition [16],inhibition [17],Structure (SMILES),inhibition (NCI-H1650 [3]),Activity (NCI-H1650 [4]),Activity (A549),Activity (NCI-H1650 [5]),Activity (NCI-H1650 [6]),Activity (NCI-H2286),Activity (NCI-H2170),Activity (NCI-H1650 [7]),Activity [8],inhibition (NCI-H1650 [11])
80%,82%,,,,,,,,,COC(=O)[C@H](Cc1ccc(OCc2ccccc2)cc1)NC(=O)CC1CCN(C(=O)Cc2ccccc2)CC1,Active,Active,Active,Active,Active,Active,Active,Active,Non-Toxic,
90%,90%,4.7,Active,,,,,,,COC(=O)[C@H](Cc1ccc(OCc2ccccc2)cc1)NC(=O)CC1CCN(C(=O)CCc2ccccc2)CC1,Active,Active,Active,Active,Active,Active,Active,Active,Non-Toxic,Active
,,,,Active,Active,Active,Active,Active,Active,COC(=O)[C@H](Cc1ccc(OCc2ccccc2)cc1)NC(=O)CC1CCN(C(=O)Cc2ccc(NC(=O)OC(C)(C)C)cc2)CC1,,,,,,,,,,
